Source: patent US10688075B2 (Morgandane Scientific, LLC, priority 2018, dated 2020)
Values joined by “and” are separate entries in the source; they are usually repeats but may differ in a detail not shown here. Identical values can stand only once. Like-named read-outs stand apart in the source and are kept apart here.

Tests used:
[1] = test system: Prothrombin Time; experiment: Prothrombin time (STA Neoplastin method) after rivaroxaban with or without verapamil; type: in vivo, human
Description: As used herein, the term “prothrombin time” (PT) refers to a blood test that measures how long it takes blood to clot. In some embodiments, a prothrombin time test can be used to measure of a patient's haemostasis. In some embodiments, PT can be used to measure the effectiveness or exposure to a blood clotting drug. Persons having skill in the art sometimes interchangeably refer to a PT test as an INR. […] Additionally, PT measurements are subject to variability based on the test reagent and laboratory test ranges determined by each institution.
Additional pharmacodynamic metrics are also gathered for each patient, including, but not limited to: prothrombin time (using the STA® Neoplastin® method) and Factor Xa activity. […] Renal Function and non-vitamin K oral anticoagulants in comparison with warfarin on safety and efficacy outcomes in atrial fibrillation patients: a systemic review and meta-regression analysis.
Blood samples were collected and processed according to the standard protocols.

[2] = in vivo; cited from earlier work
[3] = Drug-drug interaction study of oral verapamil, aspirin and rivaroxaban (Example 5); type: in vivo, human; settings: for Risk of major bleeding: e.g.
Experimental: Additional studies are performed to determine the presence of DDIs in patients treated with oral verapamil, aspirin, and rivaroxaban. […] A representative example of such a study is found in Example 1. […] Additionally, these studies show a linear relationship between the pharmacokinetic and the pharmacodynamics of rivaroxaban in subjects with normal renal function and renal insufficiency.

[4] = cited from earlier work
[5] = Reported rivaroxaban serious bleeding adverse events by concomitant drug; type: in vivo, human
Description: 8, 2015, American Heart Association, Scientific Sessions 2015, and published at http://www.abstractsonline.com/pp8/#!/3795/presentation/37668).

[6] = cited from earlier work; remark: listed apart in the source
[7] = biological target: T1, Factor Xa (Homo sapiens, UniProt P00742); experiment: Factor Xa activity after rivaroxaban with or without verapamil; type: in vivo
T1 construct: host or cells: human subjects
T1 sequence (P00742 235-488 limits assumed): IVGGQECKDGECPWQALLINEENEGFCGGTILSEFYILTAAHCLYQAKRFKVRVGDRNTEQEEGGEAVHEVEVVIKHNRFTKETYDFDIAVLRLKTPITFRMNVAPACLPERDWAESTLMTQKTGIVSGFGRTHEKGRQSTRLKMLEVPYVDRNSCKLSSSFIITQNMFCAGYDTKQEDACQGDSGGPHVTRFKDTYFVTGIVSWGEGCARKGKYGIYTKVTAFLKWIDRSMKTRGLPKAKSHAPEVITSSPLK
T1 sequence (P00742 41-179 partner limits assumed): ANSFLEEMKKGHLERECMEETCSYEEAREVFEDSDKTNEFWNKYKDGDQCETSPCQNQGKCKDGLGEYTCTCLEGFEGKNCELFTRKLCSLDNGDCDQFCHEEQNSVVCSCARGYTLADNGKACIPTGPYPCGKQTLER
Description: Additional pharmacodynamic metrics are also gathered for each patient, including, but not limited to: prothrombin time (using the STA® Neoplastin® method) and Factor Xa activity. Protocols for each of these analyses have been described in Nielsen et al 2015. Renal Function and non-vitamin K oral anticoagulants in comparison with warfarin on safety and efficacy outcomes in atrial fibrillation patients: a systemic review and meta-regression analysis.

[8] = Drug-drug interaction study of oral verapamil and 0.5-2.5 mg rivaroxaban (Example 4); type: in vivo, human; settings: 0.5-2.5 mg rivaroxaban with verapamil (100-480 mg)
Experimental: A control study is performed to determine the presence of DDIs in patients treated with oral verapamil and rivaroxaban (without aspirin). […]. A representative example of a sample study is found in Example 1.

[9] = Risk of major bleeding from steady state rivaroxaban AUC (FIG. 5); type: in vivo, human
Experimental: See Center for Drug Evaluation and Research, Application No. 022406Orig1s000, Clinical Pharmacology and Biopharmaceutics Review(s), at page 36, which is hereby incorporated by reference in its entirety.
Group “c” represents the average of the three subjects in Group “b” who had the highest AUCinf, which was about 8,143 μg·hr/L. The risk of major bleeding of the subjects in Group “c” were at least 5 times higher compared to the populations in Group “a” and not even visible on this scale.

[10] = Plasma rivaroxaban pharmacokinetics: single 20 mg rivaroxaban alone (Period I) or with 360 mg verapamil at steady state (Period III), subjects with mild renal impairment or normal renal function
Experimental: These patients are subjected to various one-time and longitudinal pharmacokinetic (PK) and pharmacodynamic (PD) analyses. […] Cmax and AUC values for each dose are calculated. Patients also undergo a general physical exam to determine overall health and well-being.
All the pharmacokinetic and pharmacodynamics analyses are repeated on patients receiving this treatment.
Subjects with either mild renal impairment or with normal renal function were enrolled.
Renal function of the subjects was determined by measuring creatinine clearance (CLcr) rates. Subjects who had CLcr≥90 mL/min were categorized as having normal renal function whereas subjects who had CLcr 50-79 mL/min were categorized as mildly renally impaired. Blood samples were collected and processed according to the standard protocols.

[11] = cited from earlier work; remark: listed apart in the source
[12] = biological target: P-gp (Homo sapiens, UniProt P08183); settings: in vitro; cited from earlier work
Sequence of P-gp (P08183 whole entry): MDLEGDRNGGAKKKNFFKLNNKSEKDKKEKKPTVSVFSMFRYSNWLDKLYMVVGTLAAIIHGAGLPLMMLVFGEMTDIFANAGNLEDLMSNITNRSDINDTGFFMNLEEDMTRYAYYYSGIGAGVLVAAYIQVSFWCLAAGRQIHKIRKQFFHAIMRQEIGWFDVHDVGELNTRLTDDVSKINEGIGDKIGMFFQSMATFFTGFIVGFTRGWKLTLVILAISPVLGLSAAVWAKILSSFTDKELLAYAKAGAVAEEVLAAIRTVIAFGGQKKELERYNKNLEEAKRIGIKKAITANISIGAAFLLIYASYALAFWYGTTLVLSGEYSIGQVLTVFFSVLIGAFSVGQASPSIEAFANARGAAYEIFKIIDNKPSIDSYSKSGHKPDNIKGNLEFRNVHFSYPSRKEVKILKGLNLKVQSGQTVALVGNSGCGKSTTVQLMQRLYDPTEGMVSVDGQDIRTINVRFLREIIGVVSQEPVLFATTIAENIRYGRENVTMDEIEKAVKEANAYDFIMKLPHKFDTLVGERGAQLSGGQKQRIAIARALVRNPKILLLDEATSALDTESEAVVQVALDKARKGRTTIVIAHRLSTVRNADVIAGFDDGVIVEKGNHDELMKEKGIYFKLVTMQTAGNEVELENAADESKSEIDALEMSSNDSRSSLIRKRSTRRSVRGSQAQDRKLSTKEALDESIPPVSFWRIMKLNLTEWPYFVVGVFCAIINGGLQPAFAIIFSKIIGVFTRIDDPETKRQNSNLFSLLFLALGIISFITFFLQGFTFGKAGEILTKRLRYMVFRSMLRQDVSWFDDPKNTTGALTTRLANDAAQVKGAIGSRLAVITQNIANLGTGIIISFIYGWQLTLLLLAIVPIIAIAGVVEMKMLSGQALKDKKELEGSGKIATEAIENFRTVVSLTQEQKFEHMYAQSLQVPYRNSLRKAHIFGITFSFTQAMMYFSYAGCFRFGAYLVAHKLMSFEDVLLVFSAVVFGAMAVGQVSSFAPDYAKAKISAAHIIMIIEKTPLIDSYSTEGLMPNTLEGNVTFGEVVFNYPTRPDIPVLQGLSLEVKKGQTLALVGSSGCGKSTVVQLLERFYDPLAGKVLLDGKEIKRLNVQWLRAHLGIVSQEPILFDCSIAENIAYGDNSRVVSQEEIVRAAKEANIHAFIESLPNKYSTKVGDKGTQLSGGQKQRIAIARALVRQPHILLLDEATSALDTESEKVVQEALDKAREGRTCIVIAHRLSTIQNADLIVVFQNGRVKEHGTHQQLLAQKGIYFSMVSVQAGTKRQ

[13] = Example 1: 20 mg rivaroxaban + 360 mg verapamil vs rivaroxaban alone
[14] = Example 4: 0.5-2.5 mg rivaroxaban with verapamil (100-480 mg)

Question: What does the source list for `O=C(NC[C@H]1CN(c2ccc(N3CCOCC3=O)cc2)C(=O)O1)c1ccc(Cl)s1` [Rivaroxaban]?
Answer: PT on concomitant verapamil [1, 13]: prolonged PT; PT on concomitant verapamil [1, 14]: prolonged PT; Relationship between plasma concentrations of rivaroxaban and PT (pharmacokinetics vs pharmacodynamics) ([1]; subjects with normal renal function and mild renal insufficiency, Day 1 and Day 15, FIGS. 1 and 2): clear linear relationship; Dose eliminated in urine as unprocessed active drug [2]: ~36%; Dose eliminated through active renal secretion [2]: 30%; Dose eliminated through glomerular filtration [2]: 6%; Dose subject to metabolic degradation via the liver's oxidative and hydrolytic pathways [2]: two-thirds; Share of rivaroxaban clearance accounted for by CYP3A4 [2]: approximately 18%; Risk of major bleeding compared to subjects not concomitantly administered verapamil ([3]; concomitant oral verapamil, aspirin and rivaroxaban): significantly higher risk of major bleeding; Risk of major bleeding ([3]; single 1.75 mg rivaroxaban and verapamil (e.g., 360 mg), Example 5, from about 1.5-2.0%): not more than 4.5%; Risk of major bleeding ([3]; single 2.5 mg rivaroxaban, verapamil (e.g., 360 mg) and aspirin (100 mg), about 3%): not more than 4.5%; Risk of major bleeding events compared to aspirin alone ([4]; 2.5 mg rivaroxaban (BID) and aspirin): increase the risk of major bleeding events; Risk of major bleeding events compared to aspirin alone ([4]; 5 mg dose of rivaroxaban alone): increase the risk of major bleeding events; Clinical outcomes (stroke, myocardial infarction, cardiovascular death) compared to aspirin alone and rivaroxaban 5 mg BID alone ([4]; rivaroxaban 2.5 mg BID and aspirin, patients with cardiovascular disease): reduce several clinical outcomes; Association with increased serious bleeding adverse events ([5]; concomitant administration of rivaroxaban and erythromycin): not associated with increased serious bleeding adverse events; Share of the reported rivaroxaban serious bleeding adverse events ([5]; patients concomitantly administered verapamil and rivaroxaban, who account for only 22% of the total population receiving rivaroxaban): 30%; Geometric mean AUC of rivaroxaban for 2.5 mg dose ([6]; 2.5 mg rivaroxaban, no verapamil): 165.4 μg·h/L to 551.9; Geometric mean AUC of rivaroxaban for 5 mg dose ([6]; 5 mg rivaroxaban, no verapamil): 1064.25 µg·h/L; Average AUC (average geometric mean), Group a ([6]; fed subjects across studies 10989 and 11938, single 20 mg rivaroxaban, FIG. 5): approximately 2,026 μg·hr/L; Upper bound of the 90% confidence interval of the steady state AUC (Label A) ([6]; patients administered 20 mg of rivaroxaban, FIG. 4): about 3,792 μg·hr/L; Upper boundary of the 90% confidence interval of the steady state AUC (Label C) ([6]; single 20 mg dose of rivaroxaban after a meal (study 10989), FIG. 4): about 2,448 μg·hr/L; Factor Xa inhibition on concomitant verapamil [7, 13]: increased Factor Xa inhibition; Factor Xa inhibition on concomitant verapamil [7, 14]: increased Factor Xa inhibition; Rivaroxaban plasma concentrations on concomitant verapamil [8]: higher rivaroxaban plasma concentrations; Risk of major bleeding, Group a ([9]; fed subjects, single 20 mg rivaroxaban, AUC about 2,026 μg·hr/L, FIG. 5): about 3%; Risk of major bleeding compared to Group a, Group b ([9]; mild renal impairment, single 20 mg rivaroxaban and 360 mg verapamil): 2.5 times higher; Risk of major bleeding compared to Group a, Group c ([9]; three subjects of Group b with the highest AUCinf): at least 5 times higher; CL/F/kg ([10]; Period I, rivaroxaban alone, Group 2 normal renal function (N = 13), outlier sample excluded, arithmetic mean): 0.108 (L/hr)/kg; CL/F/kg ([10]; Period III, rivaroxaban and verapamil, Group 2 normal renal function (N = 10), individual subjects): 0.0664 (L/hr)/kg and 0.0705 (L/hr)/kg and 0.0839 (L/hr)/kg; CL/F/kg ([10]; Period III, rivaroxaban and verapamil, Group 2 normal renal function (N = 10), median): 0.0664 (L/hr)/kg; t1/2 ([10]; human, in vivo, 20 mg): 9.44 h

Question: With `COc1ccc(NC(=O)c2ccc(C(=N)N(C)C)cc2)c(C(=O)Nc2ccc(Cl)cn2)c1` [betrixaban] as the molecule, how does the “Exposure on concomitant use of P-gp inhibitors, such as verapamil” value ([11]; BEVYXXA label) read?
Answer: increased exposure to betrixaban

Question: Which “Bleeding or other adverse events on co-administration with verapamil” value ([11]; Mendell et al.) does the source give for `CN1CCc2nc(C(=O)N[C@@H]3C[C@@H](C(=O)N(C)C)CC[C@@H]3NC(=O)C(=O)Nc3ccc(Cl)cn3)sc2C1` [edoxaban] here?
Answer: did not lead to any increased bleeding or other adverse events

Question: For `CC[C@H]1OC(=O)[C@H](C)[C@@H](O[C@H]2C[C@@](C)(OC)[C@@H](O)[C@H](C)O2)[C@H](C)[C@@H](O[C@@H]2O[C@H](C)C[C@H](N(C)C)[C@H]2O)[C@](C)(O)C[C@@H](C)C(=O)[C@H](C)[C@@H](O)[C@]1(C)O` [erythromycin], which “Eliminated renally (unchanged)” value [2] is on record?
Answer: 2-15%

Question: What about the “Inhibition of P-gp-mediated efflux of rivaroxaban across cell monolayers” value [12] of the same molecule?
Answer: did not inhibit
